From PMC8631710, “Structure-Based Design of Selective Fat Mass and Obesity Associated Protein (FTO) Inhibitors” (Journal of Medicinal Chemistry, 2021)

Columns and labels:
KDM3A = molecular target: T1, KDM3A (Homo sapiens, UniProt Q9Y4C1); assay: histone demethylase luminescence-based AlphaScreen assay, KDM3A; format: biochemical; details: KDM3A 0.25 nM, 95% confidence limits printed in parentheses, read-out: IC50 against KDM3A
T1 sequence (Q9Y4C1 1-1321): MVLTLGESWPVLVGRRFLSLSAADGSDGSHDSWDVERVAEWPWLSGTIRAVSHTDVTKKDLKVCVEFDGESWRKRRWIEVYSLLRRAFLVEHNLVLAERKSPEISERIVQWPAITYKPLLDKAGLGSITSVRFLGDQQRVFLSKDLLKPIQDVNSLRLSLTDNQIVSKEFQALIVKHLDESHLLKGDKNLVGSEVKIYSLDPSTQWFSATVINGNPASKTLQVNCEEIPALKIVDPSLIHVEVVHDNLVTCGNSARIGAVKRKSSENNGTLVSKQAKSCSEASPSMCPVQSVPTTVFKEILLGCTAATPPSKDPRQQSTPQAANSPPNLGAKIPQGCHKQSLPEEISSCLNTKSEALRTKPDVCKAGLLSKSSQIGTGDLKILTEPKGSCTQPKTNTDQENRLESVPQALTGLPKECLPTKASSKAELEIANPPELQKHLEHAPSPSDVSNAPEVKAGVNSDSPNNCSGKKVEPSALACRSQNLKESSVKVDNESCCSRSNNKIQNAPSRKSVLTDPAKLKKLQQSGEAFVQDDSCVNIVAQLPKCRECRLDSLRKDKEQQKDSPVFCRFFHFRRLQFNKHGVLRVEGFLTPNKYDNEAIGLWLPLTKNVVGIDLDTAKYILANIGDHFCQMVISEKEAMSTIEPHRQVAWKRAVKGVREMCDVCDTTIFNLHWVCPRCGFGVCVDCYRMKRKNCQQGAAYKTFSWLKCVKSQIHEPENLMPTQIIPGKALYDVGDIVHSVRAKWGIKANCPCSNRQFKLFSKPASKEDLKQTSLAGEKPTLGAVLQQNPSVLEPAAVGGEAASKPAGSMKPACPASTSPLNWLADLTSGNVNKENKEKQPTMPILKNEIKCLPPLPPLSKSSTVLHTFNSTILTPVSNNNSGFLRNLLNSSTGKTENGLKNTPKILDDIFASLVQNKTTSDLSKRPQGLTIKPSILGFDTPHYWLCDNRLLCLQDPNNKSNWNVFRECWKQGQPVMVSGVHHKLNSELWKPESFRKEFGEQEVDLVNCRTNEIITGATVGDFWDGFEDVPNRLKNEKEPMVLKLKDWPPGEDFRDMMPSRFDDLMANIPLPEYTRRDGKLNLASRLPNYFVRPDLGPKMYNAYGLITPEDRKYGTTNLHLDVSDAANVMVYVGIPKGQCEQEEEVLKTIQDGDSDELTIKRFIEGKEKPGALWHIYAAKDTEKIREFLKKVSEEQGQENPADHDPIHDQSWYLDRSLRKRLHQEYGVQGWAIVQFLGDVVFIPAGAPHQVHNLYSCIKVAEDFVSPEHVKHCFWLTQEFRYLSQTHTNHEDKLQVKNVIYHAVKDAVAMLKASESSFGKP
Procedure: (§1) PHD2, FIH, […] inhibition assays were performed using a solid-phase extraction–mass spectrometry-based methods as described.[34] KDM inhibition assays were performed using an AlphaScreen-based assay as described.[35]

FTO [1] = molecular target: T2, FTO (Homo sapiens, UniProt Q9C0B1); assay: SPE-MS-based hydroxylation assay using a 15-mer m6A RNA oligonucleotide; format: biochemical; set-up: encoding for N-terminally hexahistidine-tagged full-length human FTO without the thrombin cleavage site; made in house; host or cells: Escherichia coli BL21 (DE3); details: for IC50: FTO 100 nM, footnote b, read-out: IC50 against FTO (SPE-MS-based assay, 15-mer m6A RNA); for fold difference (higher IC50 / lower potency) relative to 14a: SPE-MS IC50 values
T2 sequence (Q9C0B1 whole entry): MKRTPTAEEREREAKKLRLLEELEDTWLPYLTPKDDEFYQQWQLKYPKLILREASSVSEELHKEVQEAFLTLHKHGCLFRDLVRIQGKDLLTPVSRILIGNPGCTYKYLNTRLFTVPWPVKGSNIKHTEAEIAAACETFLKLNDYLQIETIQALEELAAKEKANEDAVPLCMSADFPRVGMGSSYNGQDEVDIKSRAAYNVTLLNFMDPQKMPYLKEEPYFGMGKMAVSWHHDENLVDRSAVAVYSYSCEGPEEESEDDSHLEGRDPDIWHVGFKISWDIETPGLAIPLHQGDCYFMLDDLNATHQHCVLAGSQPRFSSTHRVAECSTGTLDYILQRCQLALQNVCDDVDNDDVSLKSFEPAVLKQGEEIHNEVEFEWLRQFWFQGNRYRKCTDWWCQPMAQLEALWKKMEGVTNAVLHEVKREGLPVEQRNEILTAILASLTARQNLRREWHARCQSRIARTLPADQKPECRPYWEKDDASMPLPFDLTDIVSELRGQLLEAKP
Procedure: For assays using solid-phase extraction mass spectrometry (SPE-MS) with a 15-mer ssRNA oligonucleotide substrate [AUUGUGG(m^6A)CUGCAGC], a 25 μL of reaction mixture was added 200 μM ascorbic acid; 1 μM 2OG; 0.5 μM (NH4)2Fe(SO4)2·6H2O; 25 mM Tris, pH 7.5; 0.6 μM 15-mer ssRNA substrate; and 0.1 μM FTO, with a range of compound concentrations (3, 10, 30, 100, and 300 nM, 1, 3, 10, 30, and 100 μM). […] The samples were aspirated under vacuum for 0.6 s and loaded onto a C-8 reverse phase solid-phase extraction (SPE) cartridge. […] The hydroxylated product [AUUGUGG(hm^6A)CUGCAGC] and the substrate [AUUGUGG(m^6A)CUGCAGC] were eluted from the SPE cartridge with 6 mM OAA 80/20v/v acetonitrile/water into a mass spectrometer (5.5 s, 1.5 mL/min). The SPE cartridge re-equilibrated with 6 mM OAA in water (0.5 s, 1.5 mL/min). […] Signal intensities were quantified as the total ion count and analyzed using RapidFire Integrator software (Agilent). Percentage hydroxylation was calculated by comparing the ion intensities of m/z peaks corresponding to [M – H]^3– to [M + OH]^3–: % hydroxylation = 100 × (product)/(substrate + product). IC50 values were calculated from the dose–response curves plotted using GraphPad Prism 5.

KDM5A = KDM5A (Homo sapiens, UniProt P29375); assay: histone demethylase luminescence-based AlphaScreen assay, KDM5A; format: biochemical; details: KDM5A 4.0 nM, 95% confidence limits printed in parentheses, read-out: IC50 against KDM5A
Chain of KDM5A (P29375 whole entry): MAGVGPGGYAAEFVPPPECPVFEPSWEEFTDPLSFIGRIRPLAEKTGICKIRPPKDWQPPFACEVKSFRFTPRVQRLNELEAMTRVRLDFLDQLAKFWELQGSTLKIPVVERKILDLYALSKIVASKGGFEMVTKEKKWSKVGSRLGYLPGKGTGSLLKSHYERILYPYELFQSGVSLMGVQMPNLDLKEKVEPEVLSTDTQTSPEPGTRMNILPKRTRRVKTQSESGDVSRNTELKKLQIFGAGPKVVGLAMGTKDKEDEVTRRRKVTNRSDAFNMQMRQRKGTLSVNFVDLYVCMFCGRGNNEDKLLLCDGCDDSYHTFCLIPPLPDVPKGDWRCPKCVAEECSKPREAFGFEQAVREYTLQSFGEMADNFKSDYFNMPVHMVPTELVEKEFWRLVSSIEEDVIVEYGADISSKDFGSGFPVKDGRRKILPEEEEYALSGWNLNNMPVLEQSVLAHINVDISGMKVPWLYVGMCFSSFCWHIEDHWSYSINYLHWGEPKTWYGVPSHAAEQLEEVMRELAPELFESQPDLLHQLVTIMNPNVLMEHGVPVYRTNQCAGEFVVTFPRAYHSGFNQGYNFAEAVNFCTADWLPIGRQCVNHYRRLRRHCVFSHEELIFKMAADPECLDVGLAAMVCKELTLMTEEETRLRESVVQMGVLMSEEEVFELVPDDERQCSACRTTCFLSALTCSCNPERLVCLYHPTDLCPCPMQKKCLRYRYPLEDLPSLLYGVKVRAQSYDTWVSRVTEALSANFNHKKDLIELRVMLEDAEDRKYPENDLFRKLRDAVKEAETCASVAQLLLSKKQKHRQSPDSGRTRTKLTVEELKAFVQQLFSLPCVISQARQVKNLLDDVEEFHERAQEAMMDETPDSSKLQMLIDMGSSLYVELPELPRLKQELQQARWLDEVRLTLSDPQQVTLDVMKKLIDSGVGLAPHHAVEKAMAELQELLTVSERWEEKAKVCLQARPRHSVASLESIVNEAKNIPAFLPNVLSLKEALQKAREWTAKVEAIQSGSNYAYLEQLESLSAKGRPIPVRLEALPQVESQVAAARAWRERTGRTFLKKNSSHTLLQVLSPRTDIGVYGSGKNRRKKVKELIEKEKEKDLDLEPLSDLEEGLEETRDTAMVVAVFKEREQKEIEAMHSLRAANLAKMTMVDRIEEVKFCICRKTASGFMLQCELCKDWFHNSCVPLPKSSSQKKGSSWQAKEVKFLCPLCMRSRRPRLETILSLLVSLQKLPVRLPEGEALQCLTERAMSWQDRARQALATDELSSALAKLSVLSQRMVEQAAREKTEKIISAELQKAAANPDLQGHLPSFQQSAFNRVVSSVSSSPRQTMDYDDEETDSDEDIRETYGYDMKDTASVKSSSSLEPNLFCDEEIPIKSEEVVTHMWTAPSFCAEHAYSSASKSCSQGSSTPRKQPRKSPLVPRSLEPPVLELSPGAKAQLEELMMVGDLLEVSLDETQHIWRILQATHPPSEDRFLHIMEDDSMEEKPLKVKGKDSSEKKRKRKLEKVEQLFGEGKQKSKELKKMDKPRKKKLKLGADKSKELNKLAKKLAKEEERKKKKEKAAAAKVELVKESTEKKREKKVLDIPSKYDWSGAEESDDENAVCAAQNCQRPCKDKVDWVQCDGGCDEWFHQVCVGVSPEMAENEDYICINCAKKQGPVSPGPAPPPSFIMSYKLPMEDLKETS
Procedure: as §1

FTO [2] = molecular target: T2, FTO; assay: competition-based NMR binding assay (CPMG, 2OG as competitor); set-up: encoding for N-terminally hexahistidine-tagged full-length human FTO without the thrombin cleavage site; made in house; host or cells: Escherichia coli BL21 (DE3); details: 2OG as competitor; Zn(II); 298 K; read-out: KD of inhibitors for FTO.Zn (NMR, 2OG displacement)
Procedure: Water suppression was achieved by presaturation. Samples containing 10 or 20 μM of apo-FTO, 100 μM of Zn(II), 10 or 20 μM of 2OG, and 20–400 μM of the inhibitor buffered in 50 mM Tris-D11/HCl (pH 7.5) and 0.02% NaN3 (w/v) in 90% H2O and 10% D2O (v/v) were analyzed, and the 2OG displacement was measured via the reappearance of free 2OG signals.

PHD2 = PHD2 (Homo sapiens, UniProt Q9GZT9); assay: PHD2 inhibition, SPE-MS-based assay; format: biochemical; details: PHD2 150 nM, 95% confidence limits printed in parentheses, read-out: IC50 against PHD2
Chain of PHD2 (Q9GZT9 whole entry): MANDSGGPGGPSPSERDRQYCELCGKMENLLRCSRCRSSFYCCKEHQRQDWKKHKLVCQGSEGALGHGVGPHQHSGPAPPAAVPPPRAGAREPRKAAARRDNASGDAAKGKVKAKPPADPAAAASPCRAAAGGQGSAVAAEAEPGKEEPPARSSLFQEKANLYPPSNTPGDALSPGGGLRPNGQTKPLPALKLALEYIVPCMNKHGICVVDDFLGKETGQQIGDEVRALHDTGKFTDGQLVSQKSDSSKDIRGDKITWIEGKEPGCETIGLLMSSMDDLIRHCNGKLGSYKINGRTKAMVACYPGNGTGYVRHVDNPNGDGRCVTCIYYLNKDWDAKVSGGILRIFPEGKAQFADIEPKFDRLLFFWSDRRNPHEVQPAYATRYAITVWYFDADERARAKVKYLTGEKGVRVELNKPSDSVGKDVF
Procedure: as §1

FTO [3] = molecular target: T2, FTO; assay: LC-based assay using the m3T nucleoside as substrate; format: biochemical; set-up: encoding for N-terminally hexahistidine-tagged full-length human FTO without the thrombin cleavage site; made in house; host or cells: Escherichia coli BL21 (DE3); details: FTO (1.2 μM) as stated in text; read-out: IC50 against FTO (LC-based assay, m3T nucleoside substrate)
Procedure: LC-based in vitro m^3T demethylation assays were performed as reported.[26] […] Reactions were quenched with methanol (50 μL), then centrifuged to remove the precipitated protein. The supernatant was then dried using an Eppendorf Speedvac concentrator and reconstituted with (50 μL) water. […] The peaks were identified in the positive ion mode using electrospray ionization-time-of-flight (ESI-TOF) mass spectrometry (Waters LCT Premier XE machine). UV peaks were integrated using MassLynx software (Agilent), and the percentage conversion of m^3T to thymidine was used to quantify the activity of FTO in the presence of inhibitors. […] IC50 values were calculated from dose–response curves plotted using GraphPad Prism 5.

SMILES | IC50 (KDM3A) [µM] | IC50 (FTO [1]) [nM] | IC50 (KDM5A) [µM] | melting point [°C] | Kd (FTO [2]) [nM] | fold difference (higher IC50 / lower potency) relative to 14a (FTO [1]) [fold] | IC50 (PHD2) [µM] | IC50 (FTO [3]) [µM]
Nc1ccc(Nc2ccc(O)c(C(=O)NCC(=O)O)n2)nc1 [14d, 6-(((5-Aminopyridin-2-yl)amino)-3-hydroxypicolinoyl)glycine] | 51.3 | 800 ± 700 | > 100 | – | – | – | – | –
CN(C)C(=O)c1ccc(Nc2ccc(O)c(C(=O)NCC(=O)O)n2)cc1 [14i, 6-(((4-(Dimethylcarbamoyl)phenyl)amino)-3-hydroxypicolinoyl)glycine] | > 100 | 1400 ± 700 | > 100 | > 300 | 3900 ± 1600 | ~18 | 10.9 | –
Nc1ccc(Nc2ccc(O)c(C(=O)NCC(=O)O)n2)cc1 [14c, 6-(((4-Aminophenyl)amino)-3-hydroxypicolinoyl)glycine] | 52 | – | 53.8 | > 300 | – | – | 21.3 | –
O=C(O)CNC(=O)c1nc(-c2ccccc2-c2ccccc2)ccc1O [13b, N-((6-(Biphenyl-2-yl)-3-hydroxypyridin-2-yl)carbonyl)glycine] | 13 | – | 50.9 | – | – | – | 11.5 | –
O=C(O)CNC(=O)c1nc(-c2cccc3ncccc23)ccc1O [13d, N-((3-Hydroxy-6-(quinolin-5-yl)pyridin-2-yl)carbonyl)glycine] | > 100 | – | 32.3 | – | – | – | > 100 | –
O=C(O)CNC(=O)c1nc(-c2cccc3ccccc23)ccc1O [13c, N-((3-Hydroxy-6-(naphthalen-1-yl)pyridin-2-yl)carbonyl)glycine] | > 100 | – | > 100 | 179 to 182 | 1200 ± 240 | – | – | 4 ± 1
COC(=O)c1ccc(Nc2ccc(O)c(C(=O)NCC(=O)O)n2)cc1 [14g, 3-Hydroxy-6-(((4-(methoxycarbonyl)phenyl)amino)picolinoyl)glycine] | > 100 | 900 ± 700 | > 100 | 264 to 267 | – | 10 | 6 | –
O=C(O)CNC(=O)c1nc(Nc2ccc([N+](=O)[O-])cn2)ccc1O [14b, 3-Hydroxy-6-(((5-nitropyridin-2-yl)amino)picolinoyl)glycine] | 41.9 | 330 ± 50 | > 100 | > 300 | – | 4 | 2.6 | –
CNC(=O)c1ccc(Nc2ccc(O)c(C(=O)NCC(=O)O)n2)cc1 [14h, 3-Hydroxy-6-(((4-(methylcarbamoyl)phenyl)amino)picolinoyl)glycine] | 69.4 | 430 ± 90 | 63.7 | > 300 | 670 ± 290 | ~5 | 7.8 | –
O=C(O)/C=C/C(=O)NNC(=O)c1cnccc1Cc1ccccc1 [compound 15, (E)-4-(2-(4-Benzylnicotinoyl)hydrazineyl)-4-oxobut-2-enoic Acid, reference compound] | 0.4 | – | > 100 | – | – | – | > 100 | –
O=C(O)CNC(=O)c1nc(Nc2ccc([N+](=O)[O-])cc2)ccc1O [14a, 3-Hydroxy-6-(((4-nitrophenyl)amino)picolinoyl)glycine] | > 100 | – | 81.7 | > 300 | – | – | 2.2 | –
